Laboratory results published in PubChem BioAssay (NCI).
Several values for one entry are separate records, joined by “and”; a condition that tells them apart may be missing. Equal values may be shown once.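 Grown in 96-well plates, cells were treated for 48 hours with each compound at five concentrations. Insufficient inhibition: endpoint recorded as highest concentration tested. At the GI50, growth is halved. TGI denotes the concentration required for complete inhibition of growth.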

Assays:
Experiment in all cases: NCI tumour cell line growth inhibition, 48 h
PC-3 prostate = tested on: PC-3 prostate
LOX IMVI melanoma = tested on: LOX IMVI melanoma
NCI-H226 lung = tested on: NCI-H226 lung
DMS 273 small cell lung = tested on: DMS 273 small cell lung
A498 renal = tested on: A498 renal
NCI-H460 lung = tested on: NCI-H460 lung
NCI/ADR-RES ovarian = tested on: NCI/ADR-RES ovarian
MDA-MB-231 breast = tested on: MDA-MB-231 breast
SF-295 CNS = tested on: SF-295 CNS
M14 melanoma = tested on: M14 melanoma
CAKI-1 renal = tested on: CAKI-1 renal
MOLT-4 leukemia = tested on: MOLT-4 leukemia
HT29 colon = tested on: HT29 colon
SK-MEL-5 melanoma = tested on: SK-MEL-5 melanoma
KM12 colon = tested on: KM12 colon
OVCAR-3 ovarian = tested on: OVCAR-3 ovarian
DU-145 prostate = tested on: DU-145 prostate
OVCAR-4 ovarian = tested on: OVCAR-4 ovarian
HOP-18 NSCLC = tested on: HOP-18 NSCLC
HS 578T breast = tested on: HS 578T breast
HCC-2998 colon = tested on: HCC-2998 colon
RXF 393 renal = tested on: RXF 393 renal
UO-31 renal = tested on: UO-31 renal
OVCAR-8 ovarian = tested on: OVCAR-8 ovarian
M19-MEL melanoma = tested on: M19-MEL melanoma
EKVX NSCLC = tested on: EKVX NSCLC
SW-620 colon = tested on: SW-620 colon
MDA-N = tested on: MDA-N
SN12K1 renal = tested on: SN12K1 renal
ACHN renal = tested on: ACHN renal
U251 CNS = tested on: U251 CNS
DLD-1 colon = tested on: DLD-1 colon
HCT-116 colon = tested on: HCT-116 colon
MDA-MB-435 = tested on: MDA-MB-435
HL-60(TB) leukemia = tested on: HL-60(TB) leukemia
SNB-19 CNS = tested on: SNB-19 CNS
IGROV1 ovarian = tested on: IGROV1 ovarian
UACC-62 melanoma = tested on: UACC-62 melanoma
SNB-75 CNS = tested on: SNB-75 CNS
OVCAR-5 ovarian = tested on: OVCAR-5 ovarian
A549 NSCLC = tested on: A549 NSCLC
TK-10 renal = tested on: TK-10 renal
XF 498 CNS = tested on: XF 498 CNS
SK-MEL-28 melanoma = tested on: SK-MEL-28 melanoma
COLO 205 colon = tested on: COLO 205 colon
MALME-3M melanoma = tested on: MALME-3M melanoma
CCRF-CEM leukemia = tested on: CCRF-CEM leukemia
P388 leukemia = tested on: P388 leukemia
SK-OV-3 ovarian = tested on: SK-OV-3 ovarian
RPMI-8226 leukemia = tested on: RPMI-8226 leukemia
HCT-15 colon = tested on: HCT-15 colon
KM20L2 colon = tested on: KM20L2 colon
NCI-H522 lung = tested on: NCI-H522 lung
K-562 leukemia = tested on: K-562 leukemia

SMILES: C[C@@]1(CO)[C@H](O)CC[C@@]2(C)[C@H]1CC[C@H]1C[C@@H]3C[C@@]12CC[C@@]3(O)COC(=O)CN
- GI50 (PC-3 prostate): 3.29 µM
- TGI (PC-3 prostate): 150 µM
- GI50 (LOX IMVI melanoma): 3.62 µM and 6.65 µM
- TGI (NCI-H226 lung): > 500 µM and 238 µM
- GI50 (DMS 273 small cell lung): 0.25 µM
- TGI (DMS 273 small cell lung): 144 µM
- GI50 (A498 renal): 7.15 µM and 50.9 µM and 8.34 µM
- GI50 (NCI-H460 lung): 0.176 µM and 1.37 µM and 0.317 µM
- TGI (NCI/ADR-RES ovarian): 79.9 µM and > 500 µM and 163 µM
- GI50 (MDA-MB-231 breast): 45.4 µM
- TGI (MDA-MB-231 breast): > 89.6 µM and 172 µM
- GI50 (SF-295 CNS): 770 nM (2×) and 3.44 µM
- TGI (SF-295 CNS): 24.4 µM and 142 µM
- GI50 (M14 melanoma): 3.99 µM
- TGI (M14 melanoma): > 79.1 µM and 112 µM
- GI50 (CAKI-1 renal): 2.36 µM
- TGI (CAKI-1 renal): 78.7 µM
- GI50 (MOLT-4 leukemia): 2.55 µM
- TGI (MOLT-4 leukemia): 53.7 µM and 162 µM
- GI50 (HT29 colon): 13.2 µM
- TGI (HT29 colon): 50.9 µM and 183 µM
- GI50 (SK-MEL-5 melanoma): 41.9 µM and 6.06 µM
- TGI (SK-MEL-5 melanoma): > 500 µM and 95.7 µM
- GI50 (KM12 colon): > 500 µM and 101 µM
- TGI (KM12 colon): 73.7 µM and > 500 µM and 238 µM
- GI50 (OVCAR-3 ovarian): > 500 µM and 105 µM
- TGI (OVCAR-3 ovarian): > 500 µM and 230 µM
- GI50 (DU-145 prostate): 2.02 µM
- TGI (DU-145 prostate): > 59.8 µM and 75.5 µM
- GI50 (OVCAR-4 ovarian): > 500 µM and 111 µM
- TGI (OVCAR-4 ovarian): > 87.1 µM and > 500 µM and 182 µM
- GI50 (HOP-18 NSCLC): > 500 µM and 87.4 µM
- TGI (HOP-18 NSCLC): > 500 µM
- GI50 (HS 578T breast): 110 µM
- TGI (HS 578T breast): > 97.2 µM and 214 µM
- GI50 (HCC-2998 colon): > 500 µM and 72.6 µM
- TGI (RXF 393 renal): 53.6 µM and > 500 µM and 163 µM
- GI50 (UO-31 renal): 9.27 µM
- TGI (UO-31 renal): > 80.6 µM and 201 µM
- GI50 (OVCAR-8 ovarian): 2.29 µM and 12.6 µM and 4.01 µM
- TGI (M19-MEL melanoma): > 500 µM and 161 µM
- GI50 (EKVX NSCLC): 96.8 µM and 79.3 µM
- TGI (EKVX NSCLC): 64.5 µM and > 500 µM and 171 µM
- TGI (SW-620 colon): 59.4 µM and > 500 µM and 220 µM
- TGI (MDA-N): > 86.9 µM and 180 µM
- GI50 (SN12K1 renal): 7.45 µM and 1.49 µM
- TGI (SN12K1 renal): > 500 µM
- GI50 (ACHN renal): 0.186 µM
- TGI (ACHN renal): 40.7 µM and 16.5 µM
- GI50 (U251 CNS): 4.35 µM and 7.51 µM
- TGI (U251 CNS): 66 µM and 50 µM and 178 µM
- GI50 (DLD-1 colon): > 500 µM and 104 µM
- TGI (DLD-1 colon): > 500 µM
- GI50 (HCT-116 colon): 2.03 µM and 19.5 µM and 4.63 µM
- TGI (HCT-116 colon): 65.7 µM and > 500 µM and 155 µM
- GI50 (MDA-MB-435): 34.8 µM
- TGI (MDA-MB-435): > 77.6 µM and 109 µM
- GI50 (HL-60(TB) leukemia): 2.11 µM and 0.38 µM
- TGI (SNB-19 CNS): > 500 µM and 254 µM
- TGI (IGROV1 ovarian): > 500 µM and 181 µM
- TGI (UACC-62 melanoma): > 500 µM and 131 µM
- TGI (SNB-75 CNS): 58.3 µM and > 500 µM and 258 µM
- GI50 (OVCAR-5 ovarian): 31.2 µM and 137 µM and 33.9 µM
- TGI (OVCAR-5 ovarian): > 93.2 µM and > 500 µM and 188 µM
- GI50 (A549 NSCLC): 1.81 µM and 15.7 µM and 3.1 µM
- TGI (A549 NSCLC): 76.1 µM and > 500 µM and 182 µM
- GI50 (TK-10 renal): 116 µM
- TGI (TK-10 renal): > 81.1 µM and 193 µM
- GI50 (XF 498 CNS): > 70.5 µM and 54.2 µM and 16.8 µM
- TGI (XF 498 CNS): 347 µM and 176 µM
- GI50 (SK-MEL-28 melanoma): 83.9 µM and 150 µM
- TGI (SK-MEL-28 melanoma): > 500 µM and 252 µM
- GI50 (COLO 205 colon): 82.4 µM
- TGI (COLO 205 colon): 39.7 µM and 193 µM
- TGI (MALME-3M melanoma): > 500 µM and 189 µM
- GI50 (CCRF-CEM leukemia): 6.56 µM and 0.777 µM
- TGI (P388 leukemia): 209 µM
- TGI (SK-OV-3 ovarian): 99.8 µM and > 500 µM and 186 µM
- GI50 (RPMI-8226 leukemia): 16.1 µM and 3.35 µM
- TGI (RPMI-8226 leukemia): 78.2 µM and > 500 µM and 126 µM
- TGI (HCT-15 colon): > 500 µM and 231 µM
- GI50 (KM20L2 colon): 61.2 µM and 28.7 µM and 129 µM
- TGI (KM20L2 colon): > 500 µM
- GI50 (NCI-H522 lung): 14.6 µM and 106 µM and 33.1 µM
- TGI (NCI-H522 lung): > 82.2 µM and > 500 µM and 172 µM
- GI50 (K-562 leukemia): 12.9 µM
- TGI (K-562 leukemia): 68.4 µM and > 5 µM and 231 µM
